Series [1] in a line: in vivo. The conditions noted are these: mouse, in vivo, ip. From the text:
(§1) Combination treatment in mice. The P388 lymphoidal tumor was transplanted intraperitoneally (10^6 cells/mouse) into […] mice. The animals were randomized into control and treated groups after tumor implant. […] Therapy was repeated three times at four day intervals between each treatment.

For series [2], the system named is P388 Murine Tumor. Kind of series: in vivo. To be noted: for Increased Life-Span / Long-term Survivors / Median Survival Time (± SEM): at maximum tolerated dose, q4d × 3 ip.
From the text: as §1

For series [3], the system named is dihydrofolate reductase. The conditions noted are these: cited from earlier work.
Series [4] concerns a number of tumors. To be noted: preclinical tests; cited from earlier work.
Series [5] relates to sensitive tumor cells. To be noted: cited from earlier work.
Series [6] has as its system non-small cell lung cancer. The conditions noted are these: single agent; cited from earlier work.
The subject of series [7] is non-Hodgkin's lymphoma. The conditions noted are these: single agent; cited from earlier work.
In series [8] the test system is head and neck carcinoma. To be noted: single agent; cited from earlier work.
Series [9] has as its system breast cancer. The conditions noted are these: cited from earlier work; for curative effect of the single agent: alone, metastatic breast cancer patients; for antitumor activity: single agent.
Series [10] has as its system smallcell lung cancer. The conditions noted are these: single agent; cited from earlier work.
The test system of series [11] is metastatic colorectal carcinoma. The conditions noted are these: single agent; cited from earlier work.
For series [12] the following is noted: cited from earlier work.
The subject of series [13] is refractory ovarian cancer. The conditions noted are these: in vivo; cited from earlier work.
Series [14] concerns microtubules. The conditions noted are these: cited from earlier work.

The structures appear in SMILES notation. “Also recorded” adds a separate entry of the source. Like-named read-outs stand apart in the source and are kept apart here.

`CCC(Cc1cnc2nc(N)nc(N)c2n1)c1ccc(C(=O)N[C@@H](CCC(=O)O)C(=O)O)cc1` (some centres unmarked) [EDX, 10-ethyl-10-deaza-aminopterin]: the MTD in series [1] came out at 100 mg/kg. Also, the “Therapeutic activity (in words)” value in series [2] (P388 in mice, maximum tolerated dose) is reported as “more effective than MTX”. Also, the “Increased Life-Span” value in [2] was “+338%”. For the same compound, the “Long-term Survivors” value in [2] is 1/5. For the same compound, in series [2], the “Median Survival Time (± SEM)” value was 35 ± 4 days. Moreover, the entries for the “inhibition of dihydrofolate reductase” value in series [3] (listed as Edatrexate) and in series [3] (listed as edatrexate) were “inhibits dihydrofolate reductase” and “inhibitor of dihydrofolate reductase”, respectively. For the same compound, the “antitumor activity compared with methotrexate” value in series [4] is “greater antitumor activity than methotrexate against a number of tumors”. Also, the “accumulation / retention in tumor cells compared with methotrexate” value in series [5] is “accumulated in sensitive tumor cells to a greater extent than its predecessor methotrexate and was more selectively retained by the tumor cells”. For the same compound, in series [6], the response rates is listed as ~30%. In addition, the antitumor activity entry in series [7], in [8] and in series [9] was “Antitumor activity of edatrexate has also been observed” throughout. In series [9], the “curative effect of the single agent” value is on record as “neither edatrexate nor paclitaxel alone is curative for most metastatic breast cancer patients”. Besides, the anti-tumor activity entry in [10] and in series [11] was “No anti-tumor activity was observed” each time. For the same compound, the “dosage limit due to side effects” value in series [12] (given occasionally) is reported as “up to 120 mg/m^2 /week”; in [12] (usual), 80 mg/m^2 body surface area/week. Moreover, in series [12] (single agent), the primary toxic effect entry is recorded as “mucositis”.
As to `CN(Cc1cnc2nc(N)nc(N)c2n1)c1ccc(C(=O)N[C@@H](CCC(=O)O)C(=O)O)cc1` [MTX, methotrexate], in [1], the MTD came to 55 mg/kg. Moreover, in series [2], the “Long-term Survivors” value is listed as 0/5 and the “Median Survival Time (± SEM)” value amounted to 27 ± 3 days. For the same compound, the “inhibition of dihydrofolate reductase” value in [3] is reported as “inhibitor of dihydrofolate reductase; also recorded: inhibits dihydrofolate reductase”.
Turning to `CC(=O)O[C@H]1C(=O)[C@@]2(C)[C@H]([C@H](OC(=O)c3ccccc3)[C@]3(O)C[C@H](OC(=O)[C@H](O)[C@@H](NC(=O)c4ccccc4)c4ccccc4)C(C)=C1C3(C)C)[C@]1(OC(C)=O)CO[C@@H]1C[C@@H]2O` [TXL, paclitaxel], the MTD in series [1] was determined as 18 mg/kg. For the same compound, in series [2], the “Increased Life-Span” value is reported as “+100%”, the “Long-term Survivors” value is reported as 0/5 and the “Median Survival Time (± SEM)” value is on record as 16 ± 2 days. In [9], the “curative effect of the single agent” value was “neither edatrexate nor paclitaxel alone is curative for most metastatic breast cancer patients” and the antitumor activity entry is recorded as “anti-tumor properties in some breast cancer patients”. Further, the activity result in series [13] is reported as “activity against refractory ovarian cancer”. Moreover, in series [14], the “effect on microtubule assembly and stability” value was “promotes the assembly of microtubules from tubulin dimers and stabilizes microtubules by preventing depolymerization”. The “primary dose limiting toxic effect” value in series [12] (single agent) is reported as “myelosuppression”.
